{"source": "patent US12029789B2", "about": "“Agent for use in the treatment of glioma” (DC EUROPA LIMITED, priority 2015, dated 2024)", "key": {"[1]": {"system": "S24 GBMSC astrocytoma cells", "assay": "In vivo calcium imaging with MPLSM: intercellular calcium waves (frequency, synchronicity of calcium peaks) in tumor cells", "set-up": "species or system mouse", "procedure": "The following small molecule calcium indicators were used: for GFP-transfected tumor cells: 2 mM Rhod-2AM (life technologies, R-1244); for RFP-transfected: 2 mM Fluo-4AM (life technologies, F-14201). The dissolved dyes were applied to the brain surface for 45 min. Regions with a similar tumor cell density were used. […] Pharmacological gap junction inhibition was achieved by superfusion with the gap junction inhibitor CBX (100 μM; control substance: extracellular saline; n=3 mice per group).\nTwo genetically-encoded calcium indicators were lentivirally transduced to GBMSCs: (A) The Lck-GCaMP3 sensor in the rrl-CAG-IGC3 vector (CAG promoter to control expression of DsRed and the Ca^2+ sensor that monitors near-membrane changes in [Ca^2+]i). (B) The radiometric calcium sensor Twitch-3 was used to determine intracellular calcium concentrations by Förster Resonance Energy Transfer (FRET) as known in the art.\nTumor cells or non-malignant brain astrocytes were marked manually by the use of the ROI Manager of ImageJ. Mean gray values were measured over time. […] Local maxima of calcium signals were detected by the findpeaks function (signal package, Octave-Forge). Thus, the number of calcium peaks of each cell (N) could be determined and the frequency (f) was calculated. The frequency was standardized for the cell number of each region to ensure comparability. Synchronous cells, the number of synchronous communications, and the time point of the synchronous firing were determined. Due to the fact that the images were recorded via a line mode, which leads to a latency of signal detection, the analysis was done in a window of 2 frames around each peak. This allowed to assess the synchronicity S (S∈R^+∪{0}), which was defined as the fraction of the whole number of synchronous cells (N_Syn) divided by the number of calcium peaks for the given cell (N_Ca). In case the cells were not active, a synchronicity of zero was allotted.\nFor example, in a system with a synchronicity of 1, a firing cell interacts with a second one. […]"}, "S24 GBMSCs": {"system": "S24 GBMSCs", "assay": "Intratumoral microinjection of sulforhodamine 101 (SR101): dye distribution in TM-connected tumor cell network", "assay_type": "in vivo, mouse", "settings": "SR101 100 μM co-injected with 100 μM CBX, 120 min after injection; FIG. 7G", "experimental": "For intratumoral microinjection of sulforhodamine 101 (SR101, Molecular Probes, S-359), 50 nl of 100 μM SR101 (with or without 100 μM CBX, Sigma-Aldrich, C4790) were injected with a very thin glass pipette into tumor regions of similar cellular densities, >90 days after tumor injection.\nFor in vivo imaging data, TM numbers, branches/TM and connections/cell were counted manually, and TM lengths were measured manually in the slice mode in Imaris. For quantification and analysis of tumor cells/TMs before and after radiotherapy, cells were counted in the same regions before radiation or sham radiation, and at different time points afterwards. Cells without a TM-connection were defined as “non-connected” and cells with at least one TM-connection(s) as “connected”. To analyze the number of TMs before and after irradiation, the TMs of individual, identical cells were counted at both time points. Ratios were calculated to determine the relative changes of cell and TM numbers over time. For the measurement of tumor volumes in BT088 tumors before and after radiotherapy, two regions were analyzed per animal using the surface function of Imaris. The mean speed of tumor cell invasion in S24 shControl vs. shGAP-43 tumors was determined by analysis of three consecutive imaging time points within a 24 hour time interval in vivo. […] They were connected to tracks and the mean track speed was calculated. […]"}, "normal brain astrocytes": {"system": "normal brain astrocytes", "assay": "In vivo calcium imaging with MPLSM: calcium waves in co-registered normal brain astrocytes", "set-up": "species or system mouse", "settings": "superfusion with suramin 100 μM (ATP receptor blockade); FIG. 8D", "experimental": "The following small molecule calcium indicators were used: for GFP-transfected tumor cells: 2 mM Rhod-2AM (life technologies, R-1244); for RFP-transfected: 2 mM Fluo-4AM (life technologies, F-14201). The dissolved dyes were applied to the brain surface for 45 min. Regions with a similar tumor cell density were used. For the combination of radiotherapy and calcium imaging, mice were pretreated with Fluo-4AM and imaged after awaking with low isoflurane (0.5%). One hour after radiotherapy, the same regions were imaged again to detect changes in calcium activity. Pharmacological gap junction inhibition was achieved by superfusion with the gap junction inhibitor CBX (100 μM; control substance: extracellular saline; n=3 mice per group). […]\nTumor cells or non-malignant brain astrocytes were marked manually by the use of the ROI Manager of ImageJ. Mean gray values were measured over time. […] Local maxima of calcium signals were detected by the findpeaks function (signal package, Octave-Forge). Thus, the number of calcium peaks of each cell (N) could be determined and the frequency (f) was calculated. […] Synchronous cells, the number of synchronous communications, and the time point of the synchronous firing were determined. Due to the fact that the images were recorded via a line mode, which leads to a latency of signal detection, the analysis was done in a window of 2 frames around each peak. […]"}}, "data": [{"molecule": "NCCOB(c1ccccc1)c1ccccc1", "note": "[2-APB, 2-aminoethoxydiphenyl borate]", "values": [{"measurement": "ICWs between astrocytoma cells", "setting": "[1]; superfusion with 2-APB 100 μM (inhibitor of IP3 receptors), FIG. 8D", "value": "reduced ICWs"}]}, {"molecule": "CC1(C)[C@@H](OC(=O)CCC(=O)O)CC[C@]2(C)[C@H]3C(=O)C=C4[C@@H]5C[C@@](C)(C(=O)O)CC[C@]5(C)CC[C@@]4(C)[C@]3(C)CC[C@@H]12", "note": "[CBX, carbenoxolone]", "values": [{"measurement": "frequency and synchronicity of ICWs in GBMSC astrocytoma cells", "setting": "[1]; brain superfusion with 100 μM carbenoxolone (CBX) vs. extracellular saline, S24, FIG. 7E", "value": "reduced"}, {"measurement": "distribution of sulforhodamine 101 in the TM-connected tumor cell network", "setting": "S24 GBMSCs", "value": "inhibited"}]}, {"molecule": "Cc1ccc(C(=O)Nc2ccc(S(=O)(=O)O)c3cc(S(=O)(=O)O)cc(S(=O)(=O)O)c23)cc1NC(=O)c1cccc(NC(=O)Nc2cccc(C(=O)Nc3cc(C(=O)Nc4ccc(S(=O)(=O)O)c5cc(S(=O)(=O)O)cc(S(=O)(=O)O)c45)ccc3C)c2)c1", "note": "[suramin]", "values": [{"measurement": "ICWs in malignant astrocytic cells", "setting": "[1]; superfusion with suramin 100 μM (ATP receptor blockade), FIG. 8D", "value": "reduced ICWs"}, {"measurement": "ICWs in normal astrocytic cells", "setting": "normal brain astrocytes", "value": "reduced ICWs"}]}]}
